{
  "source": "patent US20080152641A1",
  "about": "“Inhibitors of Siderophore Biosynthesis in Fungi” (Autria Wirtschaftsservice, priority 2004, published 2008)",
  "type_in_all_cases": "cell-based, Aspergillus fumigatus",
  "key": {"[1]": {"system": "ΔAf-sidA, OMO-deficient A. fumigatus strain", "test": "Radial growth of siderophore-negative ΔAf-sidA on Aspergillus minimal medium plates", "source_text": "As is described in the appended Examples below, to elucidate the function of Af-sidA, a deletion mutant for this gene was constructed. In the generated mutant allele of ΔAf-sidA, the entire coding region, 279 bp downstream and 137 bp upstream region of the gene was replaced by the hygromycine resistance (hph) marker. […] Consistent with reductive iron assimilation being responsible for the residual growth of ΔAf-sidA, the use of copper-deficient media or the addition of the copper-specific chelator bathocuproine disulfonic acid in a concentration of 30 μM decreased the radial growth rate of ΔAf-sidA 46% and 25% compared to the wt. The growth of ΔAf-sidA was increased to 84% and 99% by supplementation with 1.5 mM FeSO4 and 10 μM ferricrocin, respectively.\n(§1) FIG. 3: A. Growth phenotypes of wild type and mutant strains. […] 10^4 conidia of the respective strain were point-inoculated on AMM plates containing the respective iron source, and incubated for 48 h at 37° C. Blood agar was AMM containing 5% sheep blood."}, "[2]": {"system": "ΔsidACEA17", "test": "Conidia production of ΔsidACEA17", "details": "without supplement 99% decrease", "procedure": "as §1\n(§2) To elucidate the role of sidA a gene deletion mutant from CEA17 by replacement with pyrG was constructed (Weidner (1998), loc. cit.)."}, "[3]": {"system": "Δat1", "test": "Radial growth of Δat1 in the presence of BPS", "details": "iron depleted conditions, BPS 200 μM, radial growth at 48 h", "procedure": "as §1\n(§3) FIG. 12: Growth phenotypes of wild type and Δat1, ΔsidD and Δat2 mutant strains. Growth assays were performed during iron replete conditions (+Fe, 10 μM FeSO4), iron depleted conditions (−Fe), iron depleted conditions in the presence of bathophenantroline-disulfonate (BPS, 200 μM) and on blood agar (blood) as described in FIG. 3, radial growth was scored at 48 h.\n(§4) Bathophenantroline-disulfonic acid is an inhibitor of the reductive iron assimilatory system and the iron contained in blood agar cannot be readily used by the reductive iron assimilatory system."}, "[4]": {"system": "Δat2", "test": "Radial growth of Δat2 in the presence of BPS", "details": "iron depleted conditions, BPS 200 μM, radial growth at 48 h", "procedure": "as §1, §3, §4"}, "[5]": {"system": "ΔsidACEA17", "test": "Growth sensitivity of ΔsidACEA17 to ferrous iron chelator", "procedure": "as §1, §2"}, "[6]": {"system": "ΔsidD", "test": "Radial growth of ΔsidD in the presence of BPS", "details": "iron depleted conditions, BPS 200 μM, radial growth at 48 h", "procedure": "as §1, §3, §4"}, "[7]": {"system": "ΔsidA/ΔftrACEA17", "test": "Growth of double mutant ΔsidA/ΔftrACEA17 on different iron sources", "details": "for growth promotion of ΔsidA/ΔftrACEA17: high amounts; for growth of ΔsidA/ΔftrACEA17 on host iron compound as sole iron source: 10 μM as the sole iron source", "procedure": "10^4 conidia of the respective strain were point-inoculated on AMM plates containing the respective iron source, and incubated for 48 h at 37° C. Blood agar was AMM containing 5% sheep blood.\nTo analyze the potential role of FtrA in iron uptake of A. fumigatus we deleted the encoding gene in ΔsidACEA17 by replacement with the hygromycin resistance (hph) marker (Punt (1987), loc. cit.)."}},
  "note": "Square brackets hold non-standard residues; d marks the D form. Peptide text beside a SMILES is read from it. Orn(N5-OH,N5-Ac) = CC(=O)N(O)CCC[C@H](N)C(=O)O",
  "data": [
    {"compound": "O=S(=O)([O-])[O-].[Fe+2]", "note": "[FeSO4]", "values": [
      {"measurement": "growth of ΔAf-sidA compared to the wt", "setting": "[1]; supplementation with 1.5 mM", "result": 84, "unit": "%"},
      {"measurement": "conidia production of ΔsidACEA17", "setting": "[2]; supplementation with 1.5 mM", "result": 35, "unit": "%"}
    ]},
    {"compound": "Cc1cc(-c2ccc(S(=O)(=O)O)cc2)c2ccc3c(-c4ccc(S(=O)(=O)O)cc4)cc(C)nc3c2n1", "note": "[bathocuproine disulfonic acid]", "values": [
      {"measurement": "radial growth rate of ΔAf-sidA compared to the wt", "setting": "[1]; addition of chelator at 30 μM", "result": 25, "unit": "%"}
    ]},
    {"compound": "O=S(=O)(O)c1ccc(-c2ccnc3c2ccc2c(-c4ccc(S(=O)(=O)O)cc4)ccnc23)cc1", "note": "[bathophenantroline disulfonate, bathophenanthroline disulfonic acid]", "values": [
      {"measurement": "growth rate of Δat1", "setting": "[3]", "result": "decreased growth rate"},
      {"measurement": "growth of siderophore negative A fumigatus (FIG. 7)", "setting": "[1]", "result": "Growth inhibition"},
      {"measurement": "growth rate of Δat2", "setting": "[4]", "result": "wild type growth rate"},
      {"measurement": "sensitivity of ΔsidACEA17 to chelator", "setting": "[5]", "result": "increased sensitivity"},
      {"measurement": "growth rate of ΔsidD", "setting": "[6]", "result": "decreased growth rate"}
    ]},
    {"compound": "[Cl][Fe]([Cl])[Cl]", "note": "[ferric iron]", "values": [
      {"measurement": "growth promotion of ΔsidA/ΔftrACEA17", "setting": "[7]", "result": "not"}
    ]},
    {"compound": "CC(=O)N([O-])CCC[C@@H]1NC(=O)CNC(=O)[C@H](CO)NC(=O)CNC(=O)[C@H](CCCN([O-])C(C)=O)NC(=O)[C@H](CCCN([O-])C(C)=O)NC1=O.[Fe+3]", "note": "[ferricrocin] (cyclo(GSG[Orn(N5-OH,N5-Ac)][Orn(N5-OH,N5-Ac)][Orn(N5-OH,N5-Ac)]))", "values": [
      {"measurement": "growth of ΔsidA/ΔftrACEA17 with siderophore in growth medium", "setting": "[7]", "result": "unable to grow unless the growth medium contained ferricrocin"},
      {"measurement": "antagonism of growth inhibition by BPS and blood (FIG. 7)", "setting": "[1]", "result": "antagonist action"},
      {"measurement": "growth of ΔAf-sidA compared to the wt", "setting": "[1]; supplementation with 10 μM", "result": 99, "unit": "%"},
      {"measurement": "conidia production of ΔsidACEA17", "setting": "[2]; supplementation with 10 μM", "result": 125, "unit": "%"}
    ]},
    {"compound": "[Fe+2]", "note": "[ferrous iron]", "values": [
      {"measurement": "growth promotion of ΔsidA/ΔftrACEA17", "setting": "[7]", "result": "slight growth promotion"}
    ]},
    {"compound": "hemin", "values": [
      {"measurement": "growth of ΔsidA/ΔftrACEA17 on host iron compound as sole iron source", "setting": "[7]", "result": "failed to grow"}
    ]},
    {"compound": "holotransferrin: host iron compound tested as sole iron source", "values": [
      {"measurement": "growth of ΔsidA/ΔftrACEA17 on host iron compound as sole iron source", "setting": "[7]", "result": "failed to grow"}
    ]},
    {"compound": "iron chloride", "values": [
      {"measurement": "conidia production of ΔsidACEA17", "setting": "[2]; supplementation with 1.5 mM", "result": 35, "unit": "%"}
    ]}
  ]
}
